These are literature values, as cited in patent US11179338B1, “Powder for oral suspension containing tadalafil” (AUSON PHARMACEUTICALS INC., priority 2021, dated 2021).

Each structure is given as a SMILES string.

In the case of `CN1CC(=O)N2[C@H](c3ccc4c(c3)OCO4)c3[nH]c4ccccc4c3C[C@@H]2C1=O` [Tadalafil, pyrazino [1′,2′:1,6]pyrido[3,4-b]indole-1,4-dione, 6-(1,3-benzodioxol-5-yl) 2,3,6,7,12,12a-hexahydro-2-methyl-, (6R,12aR)-], the solubility in water entry is “insoluble”.
